Experimental data taken from patent publication US10308639B2, “Phosphatidylinositol 3-kinase inhibitors” (Gilead Sciences, Inc., priority 2014, dated 2019).

Target: T1, PI3Kδ (Homo sapiens, UniProt O00329)
T1 construct: made in house
Experiment: TR-FRET enzymatic activity assay, PI3Kδ
Type: biochemical
Settings: Table 2a; same assay

T1 sequence (O00329 whole entry): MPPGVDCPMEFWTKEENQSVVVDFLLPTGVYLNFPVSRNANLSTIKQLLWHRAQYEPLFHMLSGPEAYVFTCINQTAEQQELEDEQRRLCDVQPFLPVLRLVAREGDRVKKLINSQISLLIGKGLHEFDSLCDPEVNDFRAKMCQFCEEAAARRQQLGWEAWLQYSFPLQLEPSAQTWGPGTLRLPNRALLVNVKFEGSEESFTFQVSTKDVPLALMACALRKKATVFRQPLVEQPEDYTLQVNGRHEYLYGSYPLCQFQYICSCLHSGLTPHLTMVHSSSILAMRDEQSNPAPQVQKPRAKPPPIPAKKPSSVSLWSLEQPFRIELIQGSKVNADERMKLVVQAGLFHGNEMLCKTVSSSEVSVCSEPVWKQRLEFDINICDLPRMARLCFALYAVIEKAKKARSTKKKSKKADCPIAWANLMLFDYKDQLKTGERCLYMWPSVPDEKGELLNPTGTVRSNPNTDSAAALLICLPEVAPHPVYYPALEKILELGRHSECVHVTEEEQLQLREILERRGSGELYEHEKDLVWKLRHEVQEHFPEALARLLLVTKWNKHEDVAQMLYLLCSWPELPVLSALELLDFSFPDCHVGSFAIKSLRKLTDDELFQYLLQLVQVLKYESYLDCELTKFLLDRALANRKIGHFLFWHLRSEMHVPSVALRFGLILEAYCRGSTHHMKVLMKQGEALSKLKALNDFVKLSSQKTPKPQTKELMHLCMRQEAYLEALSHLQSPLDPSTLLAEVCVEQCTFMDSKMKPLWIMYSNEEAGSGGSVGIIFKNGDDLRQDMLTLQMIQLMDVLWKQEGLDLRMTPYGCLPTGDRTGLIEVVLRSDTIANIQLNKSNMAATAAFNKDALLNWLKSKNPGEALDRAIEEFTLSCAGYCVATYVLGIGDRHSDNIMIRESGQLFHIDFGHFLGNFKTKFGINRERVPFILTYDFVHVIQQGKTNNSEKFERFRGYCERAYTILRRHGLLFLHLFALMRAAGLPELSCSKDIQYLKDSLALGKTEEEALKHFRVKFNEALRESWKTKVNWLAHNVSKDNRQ
T1 sequence (P27986 whole entry partner): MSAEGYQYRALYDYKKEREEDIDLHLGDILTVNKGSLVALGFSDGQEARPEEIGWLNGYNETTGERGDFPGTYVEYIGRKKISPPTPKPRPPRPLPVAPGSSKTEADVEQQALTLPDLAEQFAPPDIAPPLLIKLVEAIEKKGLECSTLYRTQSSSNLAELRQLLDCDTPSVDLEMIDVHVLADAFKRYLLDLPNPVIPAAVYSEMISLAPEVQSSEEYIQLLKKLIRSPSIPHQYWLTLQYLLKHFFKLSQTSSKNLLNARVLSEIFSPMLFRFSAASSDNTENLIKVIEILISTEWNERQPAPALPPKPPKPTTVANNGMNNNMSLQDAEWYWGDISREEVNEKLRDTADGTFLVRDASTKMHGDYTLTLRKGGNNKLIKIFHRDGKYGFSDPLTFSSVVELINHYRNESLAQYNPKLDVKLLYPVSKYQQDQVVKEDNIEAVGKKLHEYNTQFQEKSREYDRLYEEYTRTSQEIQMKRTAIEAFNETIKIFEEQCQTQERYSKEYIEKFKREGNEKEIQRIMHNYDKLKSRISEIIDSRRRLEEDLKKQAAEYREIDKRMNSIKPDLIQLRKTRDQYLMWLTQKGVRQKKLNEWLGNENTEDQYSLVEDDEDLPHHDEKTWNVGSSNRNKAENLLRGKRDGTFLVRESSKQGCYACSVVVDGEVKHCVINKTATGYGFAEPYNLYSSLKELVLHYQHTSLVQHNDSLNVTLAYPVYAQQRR

Going from `C[C@H](Nc1nc(N)nc(C(F)F)c1C#N)c1nc2c(F)cc(F)cc2c(=O)n1-c1cc[nH]n1` [Compound 187, (S)-2-amino-4-((1-(6,8-difluoro-4-oxo-3-(1H-pyrazol-3-yl)-3,4-dihydroquinazolin-2-yl)ethyl)amino)-6-(difluoromethyl)pyrimidine-5-carbonitrile] to `C[C@H](Nc1nc(N)nc(C(F)F)c1Cl)c1nc2cc(F)cc(F)c2c(=O)n1-c1cc[nH]n1` [Compound 233, (S)-2-(1-((2-amino-5-chloro-6-(difluoromethyl)pyrimidin-4-yl)amino)ethyl)-5,7-difluoro-3-(1H-pyrazol-3-yl)quinazolin-4(3H)-one], the IC50 rises from 0.006 µM to 10 µM (1700-fold).

Work on `C[C@H](Nc1nc(N)nc(C(F)F)c1Cl)c1nc2c(F)c(F)ccc2c(=O)n1-c1cc[nH]n1` [Compound 234, (S)-2-(1-((2-amino-5-chloro-6-(difluoromethyl)pyrimidin-4-yl)amino)ethyl)-7,8-difluoro-3-(1H-pyrazol-3-yl)quinazolin-4(3H)-one] yielded an IC50 of 7.6 µM.

Target: T2, PI3Kγ (Homo sapiens, UniProt P48736)
T2 construct: made in house
Experiment: TR-FRET enzymatic activity assay, PI3Kγ
Type: biochemical
Settings: not given
Experimental: The compounds of formula (I) were characterized for their enzymatic activity against the PI3K isoforms. The activities were measured using a time-resolved fluorescence resonance energy transfer (TR-FRET) assay.

T2 sequence (P48736 whole entry): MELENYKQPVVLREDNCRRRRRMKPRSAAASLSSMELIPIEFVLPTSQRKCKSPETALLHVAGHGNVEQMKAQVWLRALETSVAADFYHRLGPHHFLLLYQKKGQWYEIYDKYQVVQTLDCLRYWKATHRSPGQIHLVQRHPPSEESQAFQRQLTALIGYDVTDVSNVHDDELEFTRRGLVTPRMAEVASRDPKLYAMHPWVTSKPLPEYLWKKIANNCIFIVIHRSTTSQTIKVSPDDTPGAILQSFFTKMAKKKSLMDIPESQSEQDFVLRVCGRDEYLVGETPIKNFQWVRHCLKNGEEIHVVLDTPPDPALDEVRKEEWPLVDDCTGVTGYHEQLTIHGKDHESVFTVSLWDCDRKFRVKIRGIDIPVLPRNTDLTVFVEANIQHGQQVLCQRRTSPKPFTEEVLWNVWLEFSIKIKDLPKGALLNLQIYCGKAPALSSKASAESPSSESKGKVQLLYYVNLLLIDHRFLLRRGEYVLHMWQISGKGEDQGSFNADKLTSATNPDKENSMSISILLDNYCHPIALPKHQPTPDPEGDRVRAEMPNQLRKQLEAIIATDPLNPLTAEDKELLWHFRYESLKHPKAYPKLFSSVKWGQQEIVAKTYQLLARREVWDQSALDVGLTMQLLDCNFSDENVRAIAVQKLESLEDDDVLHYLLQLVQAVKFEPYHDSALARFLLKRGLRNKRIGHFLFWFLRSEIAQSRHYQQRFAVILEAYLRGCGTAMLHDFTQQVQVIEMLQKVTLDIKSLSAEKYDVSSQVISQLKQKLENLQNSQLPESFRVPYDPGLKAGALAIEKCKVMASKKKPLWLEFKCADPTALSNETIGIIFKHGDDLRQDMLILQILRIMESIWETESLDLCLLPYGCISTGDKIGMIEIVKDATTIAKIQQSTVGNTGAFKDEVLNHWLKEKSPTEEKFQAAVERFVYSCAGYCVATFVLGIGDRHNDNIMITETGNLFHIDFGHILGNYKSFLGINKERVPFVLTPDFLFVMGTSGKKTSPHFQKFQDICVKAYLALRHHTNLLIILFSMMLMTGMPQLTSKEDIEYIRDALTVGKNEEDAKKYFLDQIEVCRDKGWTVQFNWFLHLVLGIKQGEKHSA

`C[C@H](Nc1nc(N)nc(N)c1Cl)c1nc2ccc(F)cc2c(=O)n1-c1cc[nH]n1` [Compound 111, (S)-2-(1-((2,6-diamino-5-chloropyrimidin-4-yl)amino)ethyl)-6-fluoro-3-(1H-pyrazol-3-yl)quinazolin-4(3h)-one] and `C[C@H](Nc1nc(N)nc(N)c1Cl)c1nc2cccc(F)c2c(=O)n1-c1cc[nH]n1` [Compound 151, (S)-2-(1-((2,6-diamino-5-chloropyrimidin-4-yl)amino)ethyl)-5-fluoro-3-(1H-pyrazol-3-yl)quinazolin-4(3H)-one] cannot be ordered by IC50: over 10 µM for the first, over 10 µM for the second.

`C[C@H](Nc1nc(N)nc(N)c1Cl)c1nc2c(Cl)cc(F)cc2c(=O)n1-c1cc[nH]n1` [Compound 123, (S)-8-chloro-2-(1-((2,6-diamino-5-chloropyrimidin-4-yl)amino)ethyl)-6-fluoro-3-(1H-pyrazol-3-yl)quinazolin-4(3h)-one] and `C[C@@H](Nc1nc(N)nc(N)c1Cl)c1nc2c(Cl)cc(F)cc2c(=O)n1-c1cc[nH]n1` [Compound 174, (R)-8-chloro-2-(1-((2,6-diamino-5-chloropyrimidin-4-yl)amino)ethyl)-6-fluoro-3-(1H-pyrazol-3-yl)quinazolin-4(3H)-one] cannot be ordered by IC50: over 10 µM for the first, over 10 µM for the second.

`C[C@H](Nc1nc(N)nc(N)c1Cl)c1nc2c(F)cccc2c(=O)n1-c1cc[nH]n1` [Compound 153, (S)-2-(1-((2,6-diamino-5-chloropyrimidin-4-yl)amino)ethyl)-8-fluoro-3-(1H-pyrazol-3-yl)quinazolin-4(3H)-one] and `C[C@H](Nc1cc(N)nc(N)n1)c1nc2cccc(Cl)c2c(=O)n1-c1cc[nH]n1` [Compound 163, (S)-5-chloro-2-(1-((2,6-diaminopyrimidin-4-yl)amino)ethyl)-3-(1H-pyrazol-3-yl)quinazolin-4(3H)-one] cannot be ordered by IC50: over 10 µM for the first, over 10 µM for the second.

Same assay, conditions: Table 2; TR-FRET, 2x Km ATP, 30 minutes at 25° C.; read-out: PI3Kγ IC50

`C[C@H](Nc1ncnc(N)c1C#N)c1nc2cccc(Cl)c2c(=O)n1-c1cn[nH]c1` [Compound 2, (S)-4-amino-6-((1-(5-chloro-4-oxo-3-(1H-pyrazol-4-yl)-3,4-dihydroquinazolin-2-yl)ethyl)amino)pyrimidine-5-carbonitrile] and `C[C@H](Nc1ncnc(N)c1C#N)c1nc2cccc(Cl)c2c(=O)n1-c1cc[nH]n1` [Compound 22, (S)-4-amino-6-((1-(5-chloro-4-oxo-3-(1H-pyrazol-3-yl)-3,4-dihydroquinazolin-2-yl)ethyl)amino)pyrimidine-5-carbonitrile] are the same in IC50: 0.99 µM for the first, 0.99 µM for the second.

Compared with `C[C@H](Nc1nc(N)nc(N)c1C#N)c1nc2cccc(Cl)c2c(=O)n1-c1cc[nH]n1` [Compound 16, (S)-2,4-diamino-6-((1-(5-chloro-4-oxo-3-(1H-pyrazoyl)-3,4-dihydroquinazolin-2-yl)ethyl)amino)pyrimidine-5-carbonitrile], `C[C@H](Nc1nc(N)nc(N)c1Cl)c1nc2cccc(Cl)c2c(=O)n1-c1cc[nH]n1` [Compound 64, (S)-5-chloro-2-(1-((2,6-diamino-5-chloropyrimidin-4-yl)amino)ethyl)-3-(1H-pyrazol-3-yl)quinazolin-4(3H)-one] is 24-fold higher in IC50: 0.051 µM for the first, 1.2 µM for the second. The first is the more potent here.

`N#Cc1c(N)nc(N)nc1N[C@H](c1nc2cccc(Cl)c2c(=O)n1-c1cc[nH]n1)C1CC1` [Compound 18, (S)-2,4-diamino-6-(((5-chloro-4-oxo-3-(1H-pyrazol-3-yl)-3,4-dihydroquinazolin-2-yl)(cyclopropyl)methyl)amino)pyrimidine-5-carbonitrile] and `Cc1nc(N)nc(N[C@H](c2nc3cccc(Cl)c3c(=O)n2-c2cc[nH]n2)C2CC2)c1C#N` [Compound 28, (S)-2-amino-4-(((5-chloro-4-oxo-3-(1H-pyrazol-3-yl)-3,4-dihydroquinazolin-2-yl)(cyclopropyl)methyl)amino)-6-methylpyrimidine-5-carbonitrile] are within 1.5-fold of each other in IC50: 0.19 µM for the first, 0.27 µM for the second.

First: Nc1nc(N)c(Cl)c(N[C@H](c2nc3cccc(Cl)c3c(=O)n2-c2cc[nH]n2)C2CC2)n1 [Compound 20, (S)-5-chloro-2-(cyclopropyl((2,6-diamino-5-chloropyrimidin-4-yl)amino)methyl)-3-(1H-pyrazol-3-yl)quinazolin-4(3H)-one]
Second: N#Cc1c(Cl)nc(N)nc1N[C@H](c1nc2cccc(Cl)c2c(=O)n1-c1cc[nH]n1)C1CC1 [Compound 63, (S)-2-amino-4-chloro-6-(((5-chloro-4-oxo-3-(1H-pyrazol-3-yl)-3,4-dihydroquinazolin-2-yl)(cyclopropyl)methyl)amino)pyrimidine-5-carbonitrile]
The IC50 of the first is 4.5-fold higher: 5.9 µM for the first, 1.3 µM for the second. The second is the more potent here.

With `N#Cc1c(N)nc(N)nc1N[C@H](c1nc2c(Cl)cc(F)cc2c(=O)n1-c1cc[nH]n1)C1CC1` [Compound 125, (S)-2,4-diamino-6-(((8-chloro-6-fluoro-4-oxo-3-(1H-pyrazol-3-yl)-3,4-dihydroquinazolin-2-yl)(cyclopropyl)methyl)amino)pyrimidine-5-carbonitrile] the IC50 was 0.63 µM.

Same assay, conditions: Table 2a; same assay; read-out: PI3Kγ IC50

Compared with `Nc1nc(N)c(Cl)c(N[C@@H](c2nc3cccc(Cl)c3c(=O)n2-c2cc[nH]n2)C2CC2)n1` [Compound 160, (R)-5-chloro-2-(cyclopropyl((2,6-diamino-5-chloropyrimidin-4-yl)amino)methyl)-3-(1H-pyrazol-3-yl)quinazolin-4(3H)-one], `N#Cc1c(N[C@H](c2nc3cccc(Cl)c3c(=O)n2-c2cc[nH]n2)C2CC2)nc(N)nc1C(F)F` [Compound 171, (S)-2-amino-4-(((5-chloro-4-oxo-3-(1H-pyrazol-3-yl)-3,4-dihydroquinazolin-2-yl)(cyclopropyl)methyl)amino)-6-(difluoromethyl)pyrimidine-5-carbonitrile] is lower in IC50: over 10 µM for the first, 1.1 µM for the second. The second is the more potent here.

First: C[C@H](Nc1nc(N)nc(N)c1Cl)c1nc2c(F)cc(F)cc2c(=O)n1-c1cc[nH]n1 [Compound 161, (S)-2-(1-((2,6-diamino-5-chloropyrimidin-4-yl)amino)ethyl)-6,8-difluoro-3-(1H-pyrazol-3-yl)quinazolin-4(3H)-one]
Second: CC[C@H](Nc1nc(N)nc(N)c1Cl)c1nc2c(Cl)cc(F)cc2c(=O)n1-c1cc[nH]n1 [Compound 257, (S)-8-chloro-2-(1-((2,6-diamino-5-chloropyrimidin-4-yl)amino)propyl)-6-fluoro-3-(1H-pyrazol-3-yl)quinazolin-4(3H)-one]
The IC50 of the first is lower: 4.4 µM for the first, over 10 µM for the second. The first is the more potent here.

`C[C@H](Nc1nc(N)nc(C(F)(F)F)c1C#N)c1nc2cccc(Cl)c2c(=O)n1-c1cc[nH]n1` [Compound 168, (S)-2-amino-4-((1-(5-chloro-4-oxo-3-(1H-pyrazol-3-yl)-3,4-dihydroquinazolin-2-yl)ethyl)amino)-6-(trifluoromethyl)pyrimidine-5-carbonitrile] and `C[C@H](Nc1nc(N)nc(C(F)F)c1C#N)c1nc2cccc(F)c2c(=O)n1-c1cc[nH]n1` [Compound 191, (S)-2-amino-4-(difluoromethyl)-6-((1-(5-fluoro-4-oxo-3-(1H-pyrazol-3-yl)-3,4-dihydroquinazolin-2-yl)ethyl)amino)pyrimidine-5-carbonitrile] cannot be ordered by IC50: over 10 µM for the first, over 10 µM for the second.

Compared with `N#Cc1c(N[C@H](c2nc3c(Cl)cc(F)cc3c(=O)n2-c2cc[nH]n2)C2CC2)nc(N)nc1C(F)F` [Compound 172, (S)-2-amino-4-(((8-chloro-6-fluoro-4-oxo-3-(1H-pyrazol-3-yl)-3,4-dihydroquinazolin-2-yl)(cyclopropyl)methyl)amino)-6-(difluoromethyl)pyrimidine-5-carbonitrile], `C[C@H](Nc1nc(N)nc(C(F)F)c1C#N)c1nc2c(Cl)cc(F)cc2c(=O)n1-c1cc[nH]n1` [Compound 173, (S)-2-amino-4-((1-(8-chloro-6-fluoro-4-oxo-3-(1H-pyrazol-3-yl)-3,4-dihydroquinazolin-2-yl)ethyl)amino)-6-(difluoromethyl)pyrimidine-5-carbonitrile] is 2.7-fold lower in IC50: 3.5 µM for the first, 1.3 µM for the second.

Going from `CC[C@H](Nc1nc(N)nc(C(F)F)c1C#N)c1nc2c(Cl)cc(F)cc2c(=O)n1-c1cc[nH]n1` [Compound 180, (S)-2-amino-4-((1-(8-chloro-6-fluoro-4-oxo-3-(1H-pyrazol-3-yl)-3,4-dihydroquinazolin-2-yl)propyl)amino)-6-(difluoromethyl)pyrimidine-5-carbonitrile] to `C[C@H](Nc1nc(N)nc(C(F)F)c1C#N)c1nc2c(F)cc(F)cc2c(=O)n1-c1cc[nH]n1` [Compound 187, (S)-2-amino-4-((1-(6,8-difluoro-4-oxo-3-(1H-pyrazol-3-yl)-3,4-dihydroquinazolin-2-yl)ethyl)amino)-6-(difluoromethyl)pyrimidine-5-carbonitrile], the IC50 falls from 7.8 µM to 2.3 µM (3.4-fold). The second is the more potent here.

First: C[C@H](Nc1nc(N)nc(C(F)F)c1C#N)c1nc2c(F)cccc2c(=O)n1-c1cc[nH]n1 [Compound 186, (S)-2-amino-4-(difluoromethyl)-6-((1-(8-fluoro-4-oxo-3-(1H-pyrazol-3-yl)-3,4-dihydroquinazolin-2-yl)ethyl)amino)pyrimidine-5-carbonitrile]
Second: C[C@H](Nc1nc(N)nc(C(F)F)c1C#N)c1nc2ccc(F)cc2c(=O)n1-c1cc[nH]n1 [Compound 193, (S)-2-amino-4-(difluoromethyl)-6-((1-(6-fluoro-4-oxo-3-(1H-pyrazol-3-yl)-3,4-dihydroquinazolin-2-yl)ethyl)amino)pyrimidine-5-carbonitrile]
The IC50 of the first is 1.9-fold lower: 4.3 µM for the first, 8 µM for the second. The first is the more potent here.

`C[C@H](Nc1nc(N)nc(C(F)F)c1Cl)c1nc2cc(F)cc(F)c2c(=O)n1-c1cc[nH]n1` [Compound 233, (S)-2-(1-((2-amino-5-chloro-6-(difluoromethyl)pyrimidin-4-yl)amino)ethyl)-5,7-difluoro-3-(1H-pyrazol-3-yl)quinazolin-4(3H)-one] and `C[C@H](Nc1nc(N)nc(C(F)F)c1Cl)c1nc2c(F)c(F)ccc2c(=O)n1-c1cc[nH]n1` [Compound 234, (S)-2-(1-((2-amino-5-chloro-6-(difluoromethyl)pyrimidin-4-yl)amino)ethyl)-7,8-difluoro-3-(1H-pyrazol-3-yl)quinazolin-4(3H)-one] cannot be ordered by IC50: over 10 µM for the first, over 10 µM for the second.
